Measured values taken from patent US10689354B2, “Aminoazole derivative” (Teijin Pharma Limited, priority 2015, dated 2020).

Legend:
[1] = target: T1, androgen receptor (AR-LBD) (Rattus norvegicus, UniProt P15207); assay: Evaluation of androgen receptor affinity (PolarScreen Androgen Receptor Competitor Assay Kit, Red; fluorescence polarization); settings: 22° C. for 5 hours, relative to binding rate of 1 μM DHT, read-out: AR affinity (pEC50) (converted)
T1 construct: 5 μL of 2×AR-LBD/Fluoromone AL Red Complex contained in the kit; purchased Invitrogen
T1 sequence (P15207 651-882 limits assumed): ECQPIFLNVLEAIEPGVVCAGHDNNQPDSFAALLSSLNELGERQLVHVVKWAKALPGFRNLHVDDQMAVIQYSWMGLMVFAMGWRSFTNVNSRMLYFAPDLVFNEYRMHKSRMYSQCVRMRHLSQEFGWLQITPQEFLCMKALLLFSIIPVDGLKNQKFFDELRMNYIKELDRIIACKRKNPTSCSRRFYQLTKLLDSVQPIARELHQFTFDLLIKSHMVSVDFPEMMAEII
Method in brief: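 FP competition: compound + AR-LBD/Fluoromone AL Red tracer complex, 22° C, 5 h. Reference 1 μM DHT binding rate; pEC50 by 4-parameter fit.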

human androgen receptor = target: T2, human androgen receptor (Homo sapiens, UniProt P10275); assay: Reporter assay of an androgen receptor responsive sequence (luciferase, transiently transfected HEK293 cells); assay type: cell-based; settings: 24 hours incubation, relative to activity of 100 nM DHT, read-out: AR transcriptive activity (pEC50) (converted)
T2 construct: expressed in transfected cells; host or cells: HEK293
T2 sequence (P10275 1-920): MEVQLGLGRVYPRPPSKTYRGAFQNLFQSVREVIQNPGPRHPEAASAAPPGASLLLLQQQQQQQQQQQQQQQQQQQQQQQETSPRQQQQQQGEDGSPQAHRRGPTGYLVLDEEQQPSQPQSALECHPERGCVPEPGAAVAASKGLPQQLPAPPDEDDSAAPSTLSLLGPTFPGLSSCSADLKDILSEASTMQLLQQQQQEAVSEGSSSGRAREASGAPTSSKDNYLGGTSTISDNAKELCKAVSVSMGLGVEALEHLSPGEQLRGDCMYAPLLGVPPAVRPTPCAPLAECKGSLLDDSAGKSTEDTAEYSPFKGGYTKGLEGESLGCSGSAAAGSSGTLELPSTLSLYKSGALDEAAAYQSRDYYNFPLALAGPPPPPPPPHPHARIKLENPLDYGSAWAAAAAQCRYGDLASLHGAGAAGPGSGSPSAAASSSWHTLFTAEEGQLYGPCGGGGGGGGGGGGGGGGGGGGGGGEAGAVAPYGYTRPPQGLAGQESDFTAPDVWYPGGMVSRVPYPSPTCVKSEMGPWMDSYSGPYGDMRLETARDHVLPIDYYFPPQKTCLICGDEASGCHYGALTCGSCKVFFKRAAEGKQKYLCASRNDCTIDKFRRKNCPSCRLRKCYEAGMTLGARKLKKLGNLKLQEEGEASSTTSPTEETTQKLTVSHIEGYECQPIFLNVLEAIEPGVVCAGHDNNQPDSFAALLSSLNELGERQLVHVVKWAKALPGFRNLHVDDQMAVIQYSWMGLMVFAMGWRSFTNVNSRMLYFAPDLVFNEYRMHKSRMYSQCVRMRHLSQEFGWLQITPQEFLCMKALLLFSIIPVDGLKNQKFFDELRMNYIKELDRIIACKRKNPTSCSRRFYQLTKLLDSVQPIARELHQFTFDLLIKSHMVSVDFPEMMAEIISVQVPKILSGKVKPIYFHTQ
Method in brief: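 Agonism scored as pEC50, fitted by 4-parameter curve against the response to 100 nM DHT, from dual-luciferase readout after 24 h compound treatment. Cells were HEK293 co-transfected (3 h) with human AR expression vector, androgen-responsive firefly reporter and Renilla control, in charcoal-stripped serum.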

Cc1sc(N(CCc2ccc(Cl)cc2)Cc2ccc(OC(F)(F)F)cc2)nc1C(=O)NS(=O)(=O)C(F)(F)F [Compound 704, 2-[2-(4-chlorophenyl)ethyl-[[4-(trifluoromethoxy)phenyl]methyl]amino]-5-methyl-N-(trifluoromethylsulfonyl)thiazole-4-carboxamide]
EC50 [1]: 0.316 µM | EC50 (human androgen receptor): > 10 µM

Cc1sc(N(CCc2ccc3c(c2)OCO3)Cc2ccccc2)nc1C(=O)NS(C)(=O)=O [Compound 708, 2-[2-(1,3-benzodioxol-5-yl)ethyl-benzyl-amino]-5-methyl-N-methylsulfonyl-thiazole-4-carboxamide]
EC50 [1]: 0.0794 µM | EC50 (human androgen receptor): 0.501 µM

Cc1sc(N(CCn2cc(Cl)cn2)Cc2ccccc2)nc1C(=O)NS(C)(=O)=O [Compound 709, 2-[benzyl-[2-(4-chloropyrazol-1-yl)ethyl]amino]-5-methyl-N-methylsulfonyl-thiazole-4-carboxamide]
EC50 [1]: 0.2 µM | EC50 (human androgen receptor): 0.631 µM

Cc1sc(N(CCc2ccc(Cl)c(Cl)c2)Cc2ccccc2)nc1C(=O)NS(C)(=O)=O [Compound 710, 2-[benzyl-[2-(3,4-dichlorophenyl)ethyl]amino]-5-methyl-N-methylsulfonyl-thiazole-4-carboxamide]
EC50 [1]: 0.0501 µM | EC50 (human androgen receptor): 0.398 µM

CCS(=O)(=O)NC(=O)c1nc(N(CCc2ccc(C#N)cc2)Cc2ccc(Cl)cc2)sc1C [Compound 713, 2-[(4-chlorophenyl)methyl-[2-(4-cyanophenyl)ethyl]amino]-N-ethylsulfonyl-5-methyl-thiazole-4-carboxamide]
EC50 [1]: 0.0316 µM | EC50 (human androgen receptor): 0.251 µM

Cc1sc(N(CCc2ccc(C#N)cc2)Cc2ccc(Cl)cc2)nc1C(=O)NS(=O)(=O)C1CC1 [Compound 714, 2-[(4-chlorophenyl)methyl-[2-(4-cyanophenyl)ethyl]amino]-N-cyclopropylsulfonyl-5-methyl-thiazole-4-carboxamide]
EC50 [1]: 0.0794 µM | EC50 (human androgen receptor): 1.26 µM

Cc1sc(N(CCc2ccc(C#N)cc2)Cc2ccc(Cl)cc2)nc1C(=O)NS(=O)(=O)C(F)(F)F [Compound 715, 2-[(4-chlorophenyl)methyl-[2-(4-cyanophenyl)ethyl]amino]-5-methyl-N-(trifluoromethylsulfonyl)thiazole-4-carboxamide]
EC50 [1]: 0.126 µM | EC50 (human androgen receptor): 2.51 µM

Cc1sc(N(CCc2ccc(C#N)cc2)CC2CCCCC2)nc1C(=O)NS(C)(=O)=O [Compound 716, 2-[2-(4-cyanophenyl)ethyl-(cyclohexylmethyl)amino]-5-methyl-N-methylsulfonyl-thiazole-4-carboxamide]
EC50 [1]: 0.631 µM | EC50 (human androgen receptor): > 10 µM

CCS(=O)(=O)NC(=O)c1nc(N(CCc2ccc(C#N)cc2)CC2CCCCC2)sc1C [Compound 717, 2-[2-(4-cyanophenyl)ethyl-(cyclohexylmethyl)amino]-N-ethylsulfonyl-5-methyl-thiazole-4-carboxamide]
EC50 [1]: 1 µM | EC50 (human androgen receptor): > 10 µM

Cc1sc(N(CCc2ccc(C#N)cc2)Cc2ccc(OC(F)(F)F)cc2)nc1C(=O)NS(=O)(=O)C1CC1 [Compound 721, 2-[2-(4-cyanophenyl)ethyl-[[4-(trifluoromethoxy)phenyl]methyl]amino]-N-cyclopropylsulfonyl-5-methyl-thiazole-4-carboxamide]
EC50 [1]: 0.158 µM | EC50 (human androgen receptor): > 10 µM

Cc1sc(N(CCc2ccc(C#N)cc2)Cc2ccc(OC(F)(F)F)cc2)nc1C(=O)NS(=O)(=O)C(F)(F)F [Compound 722, 2-[2-(4-cyanophenyl)ethyl-[[4-(trifluoromethoxy)phenyl]methyl]amino]-5-methyl-N-(trifluoromethylsulfonyl)thiazole-4-carboxamide]
EC50 [1]: 0.251 µM | EC50 (human androgen receptor): > 10 µM

Cc1sc(N(CCC2CCCCC2)Cc2ccc(Cl)cc2)nc1C(=O)NS(=O)(=O)C(F)(F)F [Compound 723, 2-[(4-chlorophenyl)methyl-(2-cyclohexylethyl)amino]-5-methyl-N-(trifluoromethylsulfonyl)thiazole-4-carboxamide]
EC50 [1]: 0.501 µM | EC50 (human androgen receptor): > 10 µM

Cc1sc(N(CCC2CCCCC2)Cc2ccc(OC(F)(F)F)cc2)nc1C(=O)NS(=O)(=O)C(F)(F)F [Compound 724, 2-[2-cyclohexylethyl-[[4-(trifluoromethoxy)phenyl]methyl]amino]-5-methyl-N-(trifluoromethylsulfonyl)thiazole-4-carboxamide]
EC50 [1]: 0.501 µM | EC50 (human androgen receptor): > 10 µM

Cc1sc(N(CCc2ccc(C#N)cc2)CC2CCCCC2)nc1C(=O)NS(=O)(=O)Cc1cccnc1 [Compound 725, 2-[2-(4-cyanophenyl)ethyl-(cyclohexylmethyl)amino]-5-methyl-N-(3-pyridylmethylsulfonyl)thiazole-4-carboxamide]
EC50 [1]: 0.1 µM | EC50 (human androgen receptor): > 10 µM

CCS(=O)(=O)NC(=O)c1nc(N(CCc2ccc(C#N)cc2)Cc2ccc(OC(F)(F)F)cc2)sc1C [Compound 726, 2-[2-(4-cyanophenyl)ethyl-[[4-(trifluoromethoxy)phenyl]methyl]amino]-N-ethylsulfonyl-5-methyl-thiazole-4-carboxamide]
EC50 [1]: 0.0316 µM | EC50 (human androgen receptor): 1 µM

Cc1sc(N(CCc2ccc(C#N)cc2)Cc2ccc(OC(F)(F)F)cc2)nc1C(=O)NS(=O)(=O)Cc1cccc(F)c1 [Compound 727, 2-[2-(4-cyanophenyl)ethyl-[[4-(trifluoromethoxy)phenyl]methyl]amino]-N-[(3-fluorophenyl)methylsulfonyl]-5-methyl-thiazole-4-carboxamide]
EC50 [1]: 0.2 µM | EC50 (human androgen receptor): > 10 µM

Cc1sc(N(CCC2CCCCC2)Cc2ccc(Cl)cc2)nc1C(=O)NS(C)(=O)=O [Compound 728, 2-[(4-chlorophenyl)methyl-(2-cyclohexylethyl)amino]-5-methyl-N-methylsulfonyl-thiazole-4-carboxamide]
EC50 [1]: 0.0398 µM | EC50 (human androgen receptor): 0.631 µM

CCS(=O)(=O)NC(=O)c1nc(N(CCC2CCCCC2)Cc2ccc(Cl)cc2)sc1C [Compound 729, 2-[(4-chlorophenyl)methyl-(2-cyclohexylethyl)amino]-N-ethylsulfonyl-5-methyl-thiazole-4-carboxamide]
EC50 [1]: 0.126 µM | EC50 (human androgen receptor): 5.01 µM

Cc1sc(N(CCC2CCCCC2)Cc2ccc(Cl)cc2)nc1C(=O)NS(=O)(=O)Cc1cccc(F)c1 [Compound 731, 2-[(4-chlorophenyl)methyl-(2-cyclohexylethyl)amino]-N-[(3-fluorophenyl)methylsulfonyl]-5-methyl-thiazole-4-carboxamide]
EC50 [1]: 0.501 µM | EC50 (human androgen receptor): > 10 µM

Cc1sc(N(CCC2CCCCC2)Cc2ccc(OC(F)(F)F)cc2)nc1C(=O)NS(C)(=O)=O [Compound 732, 2-[2-cyclohexylethyl-[[4-(trifluoromethoxy)phenyl]methyl]amino]-5-methyl-N-methylsulfonyl-thiazole-4-carboxamide]
EC50 [1]: 0.1 µM | EC50 (human androgen receptor): > 10 µM

CCS(=O)(=O)NC(=O)c1nc(N(CCC2CCCCC2)Cc2ccc(OC(F)(F)F)cc2)sc1C [Compound 733, 2-[2-cyclohexylethyl-[[4-(trifluoromethoxy)phenyl]methyl]amino]-N-ethylsulfonyl-5-methyl-thiazole-4-carboxamide]
EC50 [1]: 0.2 µM | EC50 (human androgen receptor): > 10 µM

Cc1sc(N(CCC2CCCCC2)Cc2ccc(OC(F)(F)F)cc2)nc1C(=O)NS(=O)(=O)C1CC1 [Compound 734, 2-[2-cyclohexylethyl-[[4-(trifluoromethoxy)phenyl]methyl]amino]-N-cyclopropylsulfonyl-5-methyl-thiazole-4-carboxamide]
EC50 [1]: 1 µM | EC50 (human androgen receptor): > 10 µM

Cc1sc(N(CCC2CCCCC2)Cc2ccc(OC(F)(F)F)cc2)nc1C(=O)NS(=O)(=O)Cc1cccc(F)c1 [Compound 735, 2-[2-cyclohexylethyl-[[4-(trifluoromethoxy)phenyl]methyl]amino]-N-[(3-fluorophenyl)methylsulfonyl]-5-methyl-thiazole-4-carboxamide]
EC50 [1]: 1 µM | EC50 (human androgen receptor): > 10 µM
